# Measurements taken from PubChem BioAssay AID588412 (NMMLSC, 2011).
# pEC50: −log10 of the molar value. Active and inactive are the calls of the source.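 Rule for the calls: active = fitted EC50 below about 63 µM, meaning a log molar EC50 under -4.2; inactive = the rest.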
# Target: Integrin alpha-4 (Homo sapiens) (UniProt P13612)
# Test: VLA-4 ligand competition with LDV-FITC, dose response, orthogonal assay, U937 cells, flow cytometry, set 1 (AID 588412)
# Conditions: flow cytometry MCF
# Integrin alpha-4 (Homo sapiens), sequence (P13612 whole entry, looked up): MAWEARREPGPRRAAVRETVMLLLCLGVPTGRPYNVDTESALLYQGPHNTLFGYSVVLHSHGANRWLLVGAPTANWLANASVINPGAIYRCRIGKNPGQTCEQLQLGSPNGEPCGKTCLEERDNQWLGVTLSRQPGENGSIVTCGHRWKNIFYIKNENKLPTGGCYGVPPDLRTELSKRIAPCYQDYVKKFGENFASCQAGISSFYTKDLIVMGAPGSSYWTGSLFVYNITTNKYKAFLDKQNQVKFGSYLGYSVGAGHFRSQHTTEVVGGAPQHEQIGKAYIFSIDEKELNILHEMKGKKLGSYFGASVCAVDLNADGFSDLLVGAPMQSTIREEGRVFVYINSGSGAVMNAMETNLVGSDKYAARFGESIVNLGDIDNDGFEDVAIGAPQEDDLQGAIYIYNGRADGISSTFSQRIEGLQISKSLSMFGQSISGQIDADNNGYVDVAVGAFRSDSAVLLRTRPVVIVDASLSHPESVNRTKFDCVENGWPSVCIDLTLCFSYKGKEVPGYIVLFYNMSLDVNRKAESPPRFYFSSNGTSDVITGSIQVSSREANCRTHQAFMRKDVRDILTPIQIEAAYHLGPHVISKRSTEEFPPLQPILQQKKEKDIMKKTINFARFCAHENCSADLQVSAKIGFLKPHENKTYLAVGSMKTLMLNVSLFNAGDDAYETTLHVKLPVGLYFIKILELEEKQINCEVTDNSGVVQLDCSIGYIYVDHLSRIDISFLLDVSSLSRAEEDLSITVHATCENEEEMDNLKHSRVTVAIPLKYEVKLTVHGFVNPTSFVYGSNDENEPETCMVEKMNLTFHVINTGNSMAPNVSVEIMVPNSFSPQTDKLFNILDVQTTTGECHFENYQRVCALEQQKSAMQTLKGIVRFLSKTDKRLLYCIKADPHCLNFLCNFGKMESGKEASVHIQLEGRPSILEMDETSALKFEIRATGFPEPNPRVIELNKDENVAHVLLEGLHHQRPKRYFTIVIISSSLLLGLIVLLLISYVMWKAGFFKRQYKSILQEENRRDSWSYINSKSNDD
pEC50,EC50,SMILES
4.52,–,CN(C)CCOc1ccc(-c2c(-c3ccccc3)sc3ccccc23)cc1
4.68,–,c1ccc2c(-c3ccc(OCCN4CCCC4)cc3)c(-c3ccsc3)sc2c1

# The remaining lines, values behind:
SMILES,pEC50,EC50
COc1cccc(-c2sc3ccccc3c2-c2ccc(OCCN(C)C)cc2)c1,4.61,–
COc1cccc(-c2sc3ccccc3c2-c2ccc(OCCN3CCCC3)cc2)c1,4.61,–
COc1ccc(-c2sc3ccccc3c2-c2ccc(OCCN(C)C)cc2)cc1,4.79,–
c1ccc(-c2sc3ccccc3c2-c2ccc(OCCN3CCCC3)cc2)cc1,4.55,–
c1ccc2c(-c3ccc(OCCN4CCCCC4)cc3)c(-c3ccsc3)sc2c1,–,inactive
